In the test the target is T1, human PDE4D catalytic domain (Homo sapiens, UniProt Q08499).
T1 construct: UniProt no; Q08499 [S380-L740]
T1 sequence (Q08499 380-740): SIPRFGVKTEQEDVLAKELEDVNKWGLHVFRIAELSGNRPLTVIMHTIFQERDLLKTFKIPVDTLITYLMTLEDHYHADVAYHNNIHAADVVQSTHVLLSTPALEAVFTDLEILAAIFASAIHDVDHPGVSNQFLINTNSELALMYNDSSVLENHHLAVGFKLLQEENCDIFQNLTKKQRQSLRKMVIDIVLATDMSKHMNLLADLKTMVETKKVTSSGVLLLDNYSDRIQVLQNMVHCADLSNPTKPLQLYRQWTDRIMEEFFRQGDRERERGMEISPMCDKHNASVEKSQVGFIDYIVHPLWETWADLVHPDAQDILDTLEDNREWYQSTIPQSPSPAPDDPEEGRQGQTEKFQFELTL
Put plainly: PDE4 Assay. The following applies: human PDE4D catalytic domain (S380-L740), TR-FRET with FAM-cAMP; expressed as a range of IC50; read-out: PDE4 Potency Range. The format is biochemical. Put shortly: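 Catalytic domain (S380-L740) was incubated with unlabelled cAMP plus FAM-cAMP and titrated compound, then stopped with Tb-donor nanoparticles binding AMP phospho groups. Generated AMP was read by time-resolved FRET; IC50 was reported as 50% inhibition of substrate cleavage relative to controls, expressed as nM ranges.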
As to `CCc1nn(CCCOC(=O)c2nnc(C)[nH]2)c2c1C(=O)NCC1(CCOCC1)C2` [Example 50, 3-(3-ethyl-4-oxo-spiro[6,8-dihydro-5H-pyrazolo[4,3-c]azepine-7,4′-tetrahydropyran]-1-yl)propyl 5-methyl-4H-1,2,4-triazole-3-carboxylate], the IC50 is above 500 nM. The result for `CCc1nn(CC(C)(C)COC(=O)C2CCOC2)c2c1C(=O)NCC1(CCOCC1)C2` (stereo not drawn) [Example 110, [3-(3-ethyl-4-oxo-spiro[6,8-dihydro-5H-pyrazolo[4,3-c]azepine-7,4′-tetrahydropyran]-1-yl)-2,2-dimethyl-propyl] tetrahydrofuran-3-carboxylate] reads 100 to 500 nM. The same measure for `CCc1nn(CCOC(=O)c2ccno2)c2c1C(=O)NCC1(CCOCC1)C2` [Example 1, 2-(3-ethyl-4-oxo-spiro[6,8-dihydro-5H-pyrazolo[4,3-c]azepine-7,4′-tetrahydropyran]-1-yl)ethyl isoxazole-5-carboxylate]: 100 to 500 nM. With `CCc1nn(CCCOC(=O)c2ccon2)c2c1C(=O)NCC1(CCOCC1)C2` [Example 21, 3-(3-ethyl-4-oxo-spiro[6,8-dihydro-5H-pyrazolo[4,3-c]azepine-7,4′-tetrahydropyran]-1-yl)propyl isoxazole-3-carboxylate], the IC50 is above 500 nM.

With `CCc1nn(CCOC(=O)c2coc(C)n2)c2c1C(=O)NCC1(CCOCC1)C2` [Example 5, 2-(3-ethyl-4-oxo-spiro[6,8-dihydro-5H-pyrazolo[4,3-c]azepine-7,4′-tetrahydropyran]-1-yl)ethyl 2-methyloxazole-4-carboxylate], the IC50 is above 500 nM. Regarding `CCc1nn(CCCOC(=O)C2CCCS(=O)(=O)C2)c2c1C(=O)NCC1(CCOCC1)C2` (stereo not drawn) [Example 102, 3-(3-ethyl-4-oxo-spiro[6,8-dihydro-5H-pyrazolo[4,3-c]azepine-7,4′-tetrahydropyran]-1-yl)propyl 1,1-dioxothiane-3-carboxylate], the IC50 was above 500 nM. The same measure for `CCc1nn(CCCOC(=O)C2CCCOC2)c2c1C(=O)NCC1(CCOCC1)C2` (stereo not drawn) [Example 58, 3-(3-ethyl-4-oxo-spiro[6,8-dihydro-5H-pyrazolo[4,3-c]azepine-7,4′-tetrahydropyran]-1-yl)propyl tetrahydropyran-3-carboxylate]: above 500 nM; for `CCc1nn(CCCOC(=O)c2cnc(C)nc2)c2c1C(=O)NCC1(CCOCC1)C2` [Example 70, 3-(3-ethyl-4-oxo-spiro[6,8-dihydro-5H-pyrazolo[4,3-c]azepine-7,4′-tetrahydropyran]-1-yl)propyl 2-methylpyrimidine-5-carboxylate]: 100 to 500 nM; for `CCc1nn(CCCOC(=O)C2CN(C(C)=O)C2)c2c1C(=O)NCC1(CCOCC1)C2` [Example 77, 3-(3-ethyl-4-oxo-spiro[6,8-dihydro-5H-pyrazolo[4,3-c]azepine-7,4′-tetrahydropyran]-1-yl)propyl 1-acetylazetidine-3-carboxylate]: above 500 nM. For the compound `CCc1nn(CCCOC(=O)c2cnnn2C)c2c1C(=O)NCC1(CCOCC1)C2` [Example 49, 3-(3-ethyl-4-oxo-spiro[6,8-dihydro-5H-pyrazolo[4,3-c]azepine-7,4′-tetrahydropyran]-1-yl)propyl 3-methyltriazole-4-carboxylate], the IC50 is 100 to 500 nM. The result for `CCc1nn(CCCOC(=O)c2coc(C3CC3)n2)c2c1C(=O)NCC1(CCOCC1)C2` [Example 89, 3-(3-ethyl-4-oxo-spiro[6,8-dihydro-5H-pyrazolo[4,3-c]azepine-7,4′-tetrahydropyran]-1-yl)propyl 2-cyclopropyloxazole-4-carboxylate] reads 100 to 500 nM; that for `CCc1nn(CCCOC(=O)c2csnn2)c2c1C(=O)NCC1(CCOCC1)C2` [Example 57, 3-(3-ethyl-4-oxo-spiro[6,8-dihydro-5H-pyrazolo[4,3-c]azepine-7,4′-tetrahydropyran]-1-yl)propyl thiadiazole-4-carboxylate], 100 to 500 nM. Regarding `CCc1nn(CCCOC(=O)c2cc(C)no2)c2c1C(=O)NCC1(CCOCC1)C2` [Example 43, 3-(3-ethyl-4-oxo-spiro[6,8-dihydro-5H-pyrazolo[4,3-c]azepine-7,4′-tetrahydropyran]-1-yl)propyl 3-methylisoxazole-5-carboxylate], the IC50 lay within 100 to 500 nM. The result for `CCc1nn(CCCOC(=O)c2cnc(C)s2)c2c1C(=O)NCC1(CCOCC1)C2` [Example 82, 3-(3-ethyl-4-oxo-spiro[6,8-dihydro-5H-pyrazolo[4,3-c]azepine-7,4′-tetrahydropyran]-1-yl)propyl 2-methylthiazole-5-carboxylate] reads 100 to 500 nM; that for `CCc1nn(CCCOC(=O)c2nc[nH]n2)c2c1C(=O)NCC1(CCOCC1)C2` [Example 26, 3-(3-ethyl-4-oxo-spiro[6,8-dihydro-5H-pyrazolo[4,3-c]azepine-7,4′-tetrahydropyran]-1-yl)propyl 1H-1,2,4-triazole-3-carboxylate], above 500 nM; that for `CCc1nn(CCOC(=O)Cc2cccn2C)c2c1C(=O)NCC1(CCOCC1)C2` [Example 9, 2-(3-ethyl-4-oxo-spiro[6,8-dihydro-5H-pyrazolo[4,3-c]azepine-7,4′-tetrahydropyran]-1-yl)ethyl 2-(1-methylpyrrol-2-yl)acetate], above 500 nM. For `CCc1nn(CCCOC(=O)c2c(C)nn(C)c2C)c2c1C(=O)NCC1(CCOCC1)C2` [Example 91, 3-(3-ethyl-4-oxo-spiro[6,8-dihydro-5H-pyrazolo[4,3-c]azepine-7,4′-tetrahydropyran]-1-yl)propyl 1,3,5-trimethylpyrazole-4-carboxylate], the IC50 was in the range of 100 to 500 nM.

For the compound `CCc1nn(CCCOC(=O)c2cccnc2C)c2c1C(=O)NCC1(CCOCC1)C2` [Example 65, 3-(3-ethyl-4-oxo-spiro[6,8-dihydro-5H-pyrazolo[4,3-c]azepine-7,4′-tetrahydropyran]-1-yl)propyl 2-methylpyridine-3-carboxylate], the IC50 was in the range of 100 to 500 nM. In the case of `CCc1nn(CCOC(=O)c2cc(C)on2)c2c1C(=O)NCC1(CCOCC1)C2` [Example 4, 2-(3-ethyl-4-oxo-spiro[6,8-dihydro-5H-pyrazolo[4,3-c]azepine-7,4′-tetrahydropyran]-1-yl)ethyl 5-methylisoxazole-3-carboxylate], the IC50 lay within 100 to 500 nM. The result for `CCc1nn(CCCOC(=O)c2c(C)noc2C)c2c1C(=O)NCC1(CCOCC1)C2` [Example 75, 3-(3-ethyl-4-oxo-spiro[6,8-dihydro-5H-pyrazolo[4,3-c]azepine-7,4′-tetrahydropyran]-1-yl)propyl 3,5-dimethylisoxazole-4-carboxylate] reads above 500 nM. The result for `CCc1nn(CCCOC(=O)c2ncccn2)c2c1C(=O)NCC1(CCOCC1)C2` [Example 31, 3-(3-ethyl-4-oxo-spiro[6,8-dihydro-5H-pyrazolo[4,3-c]azepine-7,4′-tetrahydropyran]-1-yl)propyl pyrimidine-2-carboxylate] reads above 500 nM.
